Source: US20260027068A1, “METHODS OF ADM[…]-KETAMINE” (Perception Neuroscience, Inc., priority 2022, published 2026)

Assay: Temperature (vital signs)
Settings: 60 mg
Procedure: The Investigational Medicinal Product (IMP) R(−)-ketamine hydrochloride in sterile water for intravenous injection was investigated as an […] treatment of TRD. The International Union of Pure and Applied Chemistry (IUPAC) name is of the IMP is (2R)-2-(2-chlorophenyl)-2-(methylamino)cyclohexan-1-one. Subjects received the solution at either 30 mg or 60 mg dose, or a placebo. The IMP or placebo was administered on Day 1 as a single IV infusion via an electronic infusion pump over 40 minutes. The duration of study participation for each subject was up to 29 days including a screening period, a 3-day in-clinic visit, and 2 follow-up visits. 101 subjects were enrolled in approximately 20 study centers in the EU and the US.
Tympanic or temporal temperature, heart rate, blood pressure (SBP/DBP), respiratory rate, and SpO2 were assessed. Blood pressure and pulse measurements will be assessed with a completely automated device while the subject is supine or semi-supine. Manual techniques will be used only if an automated device is not available. Blood pressure and pulse measurements should be preceded by at least 5 minutes of rest for the subject in a quiet setting without distractions (e.g., television, cell phones). An abnormal blood pressure value at screening may be repeated once after 5 minutes of relaxation to determine the subject's eligibility. Blood pressure was recorded using the same arm and position (supine or semi-supine) throughout the study, where possible. Vital signs (to be taken before blood collection for laboratory tests) consisted of 1 pulse and 3 blood pressure measurements (3 consecutive blood pressure readings will be recorded at intervals of at least 1 minute). The average of the 3 blood pressure readings was recorded in the CRF. A pulse oximeter was used to measure peripheral capillary oxygen saturation (SpO2) continuously from pre-dose until 4-hours post-dose. A pulse oximeter was clipped onto the finger or foot of the subject, and light will be sent through the finger or foot and measured on the other side.
In these tables, baseline value is defined as the last non-missing value prior to study drug administration.

CN[C@@]1(c2ccccc2Cl)CCCCC1=O.Cl [R(−)-ketamine, (2R)-2-(2-chlorophenyl)-2-(methylamino)cyclohexan-1-one]
Temperature, Max (Day 1, 15 minutes): 36.9 °C
Temperature, Mean (Day 1, 15 minutes): 36.58 °C
Temperature, Median (Day 1, 15 minutes): 36.50 °C
Temperature, Min (Day 1, 15 minutes): 36.4 °C
Temperature, Max (Day 1, 40 minutes): 36.8 °C
Temperature, Mean (Day 1, 40 minutes): 36.58 °C
Temperature, Median (Day 1, 40 minutes): 36.60 °C
Temperature, Min (Day 1, 40 minutes): 36.3 °C
Temperature, Max (Day 1, 60 minutes): 36.8 °C
Temperature, Mean (Day 1, 60 minutes): 36.55 °C
Temperature, Median (Day 1, 60 minutes): 36.50 °C
Temperature, Min (Day 1, 60 minutes): 36.4 °C
Temperature, Max (Day 1, 2 hours): 37.0 °C
Temperature, Mean (Day 1, 2 hours): 36.60 °C
Temperature, Median (Day 1, 2 hours): 36.60 °C
Temperature, Min (Day 1, 2 hours): 36.2 °C
Temperature, Max (Day 1, 4 hours): 37.0 °C
Temperature, Mean (Day 1, 4 hours): 36.60 °C
Temperature, Median (Day 1, 4 hours): 36.60 °C
Temperature, Min (Day 1, 4 hours): 36.3 °C
Temperature, Max (Day 1, 6 hours): 37.1 °C
Temperature, Mean (Day 1, 6 hours): 36.61 °C
Temperature, Median (Day 1, 6 hours): 36.60 °C
Temperature, Min (Day 1, 6 hours): 36.1 °C
Temperature, Max (Day 2 - Discharge): 36.9 °C
Temperature, Mean (Day 2 - Discharge): 36.60 °C
Temperature, Median (Day 2 - Discharge): 36.60 °C
Temperature, Min (Day 2 - Discharge): 36.1 °C
Temperature, Max (Day 8): 37.2 °C
Temperature, Mean (Day 8): 36.55 °C
Temperature, Median (Day 8): 36.60 °C
Temperature, Min (Day 8): 35.8 °C
Temperature, Max (Day 15): 37.0 °C
Temperature, Mean (Day 15): 36.62 °C
Temperature, Median (Day 15): 36.60 °C
Temperature, Min (Day 15): 36.3 °C
Temperature, Change from Baseline, Max (to Day 1, 15 minutes): 0.3 °C
Temperature, Change from Baseline, Mean (to Day 1, 15 minutes): 0.04 °C
Temperature, Change from Baseline, Median (to Day 1, 15 minutes): 0.00 °C
Temperature, Change from Baseline, Min (to Day 1, 15 minutes): −0.2 °C
Temperature, Change from Baseline, Max (to Day 1, 40 minutes): 0.7 °C
Temperature, Change from Baseline, Mean (to Day 1, 40 minutes): 0.05 °C
Temperature, Change from Baseline, Median (to Day 1, 40 minutes): 0.00 °C
Temperature, Change from Baseline, Min (to Day 1, 40 minutes): −0.4 °C
Temperature, Change from Baseline, Max (to Day 1, 60 minutes): 0.3 °C
Temperature, Change from Baseline, Mean (to Day 1, 60 minutes): 0.01 °C
Temperature, Change from Baseline, Median (to Day 1, 60 minutes): 0.00 °C
Temperature, Change from Baseline, Min (to Day 1, 60 minutes): −0.3 °C
Temperature, Change from Baseline, Max (to Day 1, 2 hours): 0.8 °C
Temperature, Change from Baseline, Mean (to Day 1, 2 hours): 0.07 °C
Temperature, Change from Baseline, Median (to Day 1, 2 hours): 0.00 °C
Temperature, Change from Baseline, Min (to Day 1, 2 hours): −0.5 °C
Temperature, Change from Baseline, Max (to Day 1, 4 hours): 0.9 °C
Temperature, Change from Baseline, Mean (to Day 1, 4 hours): 0.07 °C
Temperature, Change from Baseline, Median (to Day 1, 4 hours): 0.00 °C
Temperature, Change from Baseline, Min (to Day 1, 4 hours): −0.2 °C
Temperature, Change from Baseline, Max (to Day 1, 6 hours): 1.0 °C
Temperature, Change from Baseline, Mean (to Day 1, 6 hours): 0.07 °C
Temperature, Change from Baseline, Median (to Day 1, 6 hours): 0.00 °C
Temperature, Change from Baseline, Min (to Day 1, 6 hours): −0.4 °C
Temperature, Change from Baseline, Max (to Day 2 - Discharge): 0.6 °C
Temperature, Change from Baseline, Mean (to Day 2 - Discharge): 0.07 °C
Temperature, Change from Baseline, Median (to Day 2 - Discharge): 0.10 °C
Temperature, Change from Baseline, Min (to Day 2 - Discharge): −0.7 °C
Temperature, Change from Baseline, Max (to Day 8): 1.2 °C
Temperature, Change from Baseline, Mean (to Day 8): 0.01 °C
Temperature, Change from Baseline, Median (to Day 8): 0.00 °C
Temperature, Change from Baseline, Min (to Day 8): −0.9 °C
Temperature, Change from Baseline, Max (to Day 15): 1.2 °C
Temperature, Change from Baseline, Mean (to Day 15): 0.08 °C
Temperature, Change from Baseline, Median (to Day 15): 0.00 °C
Temperature, Change from Baseline, Min (to Day 15): −0.5 °C
